Data reported in patent US8012748B2, “Peripheral nervous system specific sodium channel nucleic acids” (The Research Foundation of State University of New York, priority 1994, dated 2011).

Columns and labels:
[1] = molecular target: DRG sodium channel; settings: cited from earlier work
[2] = molecular target: T1, PNS SCP (PN1 sodium channel) in PK1-4 cells (Rattus norvegicus, UniProt O08562); test: (14C) guanidinium flux assay in cells expressing a PNS SCP; assay type: cell-based
T1 construct: PKI-4 cells express a PNS SCP(PN1) without NGF treatment; endogenous in cells
T1 sequence (O08562 whole entry): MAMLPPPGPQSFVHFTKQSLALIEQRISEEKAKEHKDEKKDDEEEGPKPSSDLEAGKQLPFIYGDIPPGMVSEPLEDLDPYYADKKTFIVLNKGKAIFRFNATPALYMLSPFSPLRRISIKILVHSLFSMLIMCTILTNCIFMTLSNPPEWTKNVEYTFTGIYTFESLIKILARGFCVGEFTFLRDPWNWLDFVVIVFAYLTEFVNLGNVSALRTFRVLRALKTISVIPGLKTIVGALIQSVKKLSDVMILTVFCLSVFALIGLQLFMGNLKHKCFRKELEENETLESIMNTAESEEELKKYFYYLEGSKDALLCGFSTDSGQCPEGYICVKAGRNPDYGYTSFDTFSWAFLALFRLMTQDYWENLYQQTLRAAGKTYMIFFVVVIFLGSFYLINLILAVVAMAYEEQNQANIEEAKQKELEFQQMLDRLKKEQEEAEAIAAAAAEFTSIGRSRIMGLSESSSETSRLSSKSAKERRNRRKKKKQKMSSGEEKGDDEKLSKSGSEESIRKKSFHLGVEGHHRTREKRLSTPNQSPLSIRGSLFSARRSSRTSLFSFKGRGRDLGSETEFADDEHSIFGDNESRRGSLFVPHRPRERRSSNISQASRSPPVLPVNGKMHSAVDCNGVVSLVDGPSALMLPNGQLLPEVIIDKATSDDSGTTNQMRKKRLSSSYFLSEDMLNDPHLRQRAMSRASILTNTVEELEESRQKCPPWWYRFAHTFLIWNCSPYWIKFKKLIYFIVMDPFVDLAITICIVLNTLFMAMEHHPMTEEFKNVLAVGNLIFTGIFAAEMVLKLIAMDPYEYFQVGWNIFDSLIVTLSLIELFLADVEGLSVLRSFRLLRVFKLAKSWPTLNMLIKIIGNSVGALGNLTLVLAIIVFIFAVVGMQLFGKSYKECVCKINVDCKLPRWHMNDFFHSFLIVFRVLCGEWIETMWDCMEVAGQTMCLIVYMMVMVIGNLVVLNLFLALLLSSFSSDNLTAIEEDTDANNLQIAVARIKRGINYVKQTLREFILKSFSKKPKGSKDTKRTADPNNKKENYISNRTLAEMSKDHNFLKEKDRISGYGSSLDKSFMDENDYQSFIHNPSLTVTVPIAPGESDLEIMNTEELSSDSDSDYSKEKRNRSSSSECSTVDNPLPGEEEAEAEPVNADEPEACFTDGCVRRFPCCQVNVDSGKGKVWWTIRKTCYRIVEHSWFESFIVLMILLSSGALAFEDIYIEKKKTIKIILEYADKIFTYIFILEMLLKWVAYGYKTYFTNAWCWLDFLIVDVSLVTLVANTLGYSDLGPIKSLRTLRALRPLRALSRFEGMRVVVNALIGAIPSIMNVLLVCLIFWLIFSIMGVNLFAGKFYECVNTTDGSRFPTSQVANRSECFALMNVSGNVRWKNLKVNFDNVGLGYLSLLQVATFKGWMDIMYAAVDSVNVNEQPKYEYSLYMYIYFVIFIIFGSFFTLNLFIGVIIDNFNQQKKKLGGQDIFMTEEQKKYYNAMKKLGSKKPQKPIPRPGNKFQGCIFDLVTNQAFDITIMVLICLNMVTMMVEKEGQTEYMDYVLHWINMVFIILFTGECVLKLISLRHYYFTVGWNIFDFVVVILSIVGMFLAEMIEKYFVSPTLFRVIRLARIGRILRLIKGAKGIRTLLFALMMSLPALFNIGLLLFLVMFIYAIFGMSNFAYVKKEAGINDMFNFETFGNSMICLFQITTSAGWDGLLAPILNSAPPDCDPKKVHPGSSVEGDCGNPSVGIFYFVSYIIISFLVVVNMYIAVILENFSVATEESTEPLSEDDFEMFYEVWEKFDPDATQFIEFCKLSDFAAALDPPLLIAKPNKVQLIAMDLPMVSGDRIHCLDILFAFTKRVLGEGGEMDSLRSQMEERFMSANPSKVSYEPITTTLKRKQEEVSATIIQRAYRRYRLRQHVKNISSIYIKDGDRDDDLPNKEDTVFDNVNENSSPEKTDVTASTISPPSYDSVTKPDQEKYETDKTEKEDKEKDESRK

NC1=N[C@H](O)[C@H]2[C@H]3O[C@]4(O)O[C@@H]([C@@H](O)[C@@]2(N1)[C@@H]4O)[C@]3(O)CO [TTX, tetrodotoxin]
kD for TTX of the DRG channel relative to the kD of sodium channels in skeletal muscle or heart [1]: approximately tenfold higher

Cc1cccc(C)c1NC(=O)CN1CCN(CCCC(c2ccc(F)cc2)c2ccc(F)cc2)CC1 [lidoflazine]
inhibition of sodium channel activity of at least one PNS SCP ([2]; cell lines expressing at least one PNS SCP (PC12, PK1-4 and other isolated or recombinant cells)): found to inhibit sodium channel activity
IC50 ([2]; guanidinium flux assay, PK1-4 cells, read-out: for inhibition of sodium channel activity (converted)): 309 nM
